Measurements from paper PMC11289669, “BAR502/fibrate conjugates: synthesis, biological evaluation and metabolic profile” (Frontiers in Chemistry, 2024).

Experiments:
3T3-L1 cells = assay: 3T3-L1 preadipocyte differentiation, adipogenic marker gene expression (qRT-PCR); type: cell-based, murine; conditions: differentiation medium (DIM), 7 days, 10 µM
Method: The 3T3-L1 cells were cultured in Dulbecco’s modified Eagle’s medium (DMEM; Euroclone), supplemented with 10% fetal bovine serum, 1% l-glutamine, 100 U/mL penicillin, and 100 μg/mL streptomycin, at 37 °C. Preadipocytes of 3T3-L1 cells were plated at 1.7 × 10^6 cells in T75 flasks, and grown to confluence. Two days after reaching confluence (day 0), the cells were stimulated with differentiation medium (DIM), either alone (DMEM, 10% FBS, 500 μM 3-isobutyl-1-methylxanthine, 1 μM dexamethasone, […]), or in combination with BAR502 and clofibrate at the concentration of 5 µM or with compound 1 (10 µM). On day 3, the DIM was replaced by insulin medium (DMEM, 10% fetal bovine serum, […]) alone or with the compounds. On day 7 cells were recovered.
Total mRNA extraction from U937 and 3T3.L1 was performed using Tri-Reagent (Zymo Research) and Direct-zol™ RNA MiniPrep w/Zymo-Spin™ IIC Columns (Zymo Research, Irvine, CA). […] The relative mRNA expression was calculated accordingly to the ΔCt method. […]

[1] = Stability in cryopreserved pooled human hepatocytes; type: in vitro ADME; conditions: cryopreserved pooled human hepatocytes (HEP10), read-out: t1/2 in cryopreserved hepatocytes
Method: Cryopreserved HEP10 Pooled Human Hepatocytes were thawed in 37°C water bath for 2 min and then transferred into CHRM® Medium. After centrifugation at room temperature cells were resuspended in pre-warmed Incubation Medium and diluted to correct seeding density (5 × 10^5 cells/mL).

## CC[C@@H]1C2C[C@H](O)CC[C@]2(C)C2CC[C@@]3(C)C(CC[C@@H]3[C@H](C)CCOC(=O)C(C)(C)Oc3ccc(Cl)cc3)C2[C@@H]1O (some centres unmarked) [Compound 1]
3T3-L1 cells
  Expression of markers of adipocyte differentiation (Adiponectin, Pparγ, Cebp): reduction in the expression of all markers of adipocyte differentiation
[1]
  half-life: 121 min
